What is called MIC is the lowest concentration that inhibits growth of the organism. For orientation: IC50 means the point on the concentration scale where inhibition reaches its midpoint.

Structures are written as SMILES. Values after ≈ are worked out from the molar mass of the structure shown. Read-outs that look alike come from different tables or passages of the source.

For data set [1], the system named is Escherichia coli NCTC 9001. Kind of data set: Broth microdilution MIC, E. coli. It counts as cell-based. Conditions: Escherichia coli. Here is the method: (§1) Minimal inhibitory concentration (MIC) values against Pseudomonas aeruginosa PA01, Staphylococcus aureus ATCC 43300, Salmonella enteritidis ATCC 13075, Salmonella pullorum ATCC 13036, Escherichia coli NCTC 9001, Listeria monocytogenes NCTC 11994, and Enterococcus faecalis ATCC 29212 were determined in Luria-Bertani broth (10.0 g/L tryptone, 10.0 g/L NaCl, 5.0 g/L yeast extract, pH 7.2) in accordance with the standard broth microdilution assay for bacteria that grow aerobically, as recommended by the CLSI (Clinical and Laboratory Standards Institute, Methods for Dilution Antimicrobial Susceptibility Tests for Bacteria That Grow Aerobically; Approved Standard—Tenth Edition M07-A10. CLSI). The highest tested concentration was 500 μg/mL, and the inocula were 1^·10^6 cfu/mL.
Background: Dilution methods test growth across graded concentrations, often in twofold steps.

The test system of data set [2] is Pseudomonas aeruginosa PAO1. Kind of data set: Broth microdilution MIC, P. aeruginosa. Format: cell-based. Conditions: Pseudomonas aeruginosa. Here is the method:
as §1

The subject of data set [3] is Listeria monocytogenes NCTC 11994. Put plainly: Broth microdilution MIC, L. monocytogenes. It counts as cell-based. Conditions: Listeria monocytogenes. Here is the method:
as §1

For data set [4], the system named is Staphylococcus aureus ATCC 43300. Put plainly: Broth microdilution MIC, S. aureus. It counts as cell-based. Conditions: Staphylococcus aureus. Here is the method: as §1
For data set [5], the system named is Enterococcus faecalis ATCC 29212. Kind of data set: Broth microdilution MIC, E. faecalis. It counts as cell-based. Conditions: Enterococcus faecalis. Here is the method: as §1
For data set [6], the system named is Salmonella enteritidis ATCC 13075. Put plainly: Broth microdilution MIC, S. enteritidis. Format: cell-based. Conditions: Salmonella enterica, 24 h. How it is done:
as §1

The test system of data set [7] is Salmonella pullorum ATCC 13036. Put plainly: Broth microdilution MIC, S. pullorum. It counts as cell-based. Conditions: Salmonella enterica, 24 h. Here is the method:
as §1

A further data set has as its system C. albicans ATCC 10231. Put plainly: Broth microdilution MIC, C. albicans. Format: cell-based, Candida albicans. Conditions: Candida albicans, ATCC10231. Here is the method:
(§2) Stock solutions of bpa, bpe, and silver(I) complexes 1–3 were prepared fresh in DMSO (50 mg/mL) and kept at 4°C prior to use. Susceptibility testing of Candida spp. (C. albicans ATCC 10231, C. krusei ATCC 6258, C. parapsilosis ATCC 22019, and C. glabrata ATCC 2001) was performed according to CLSI broth microdilution guidelines (Clinical and Laboratory Standards Institute, Reference Method for Broth Dilution Antifungal Susceptibility Testing of Yeasts—Third Edition: Approved Standard M27-A3; Clinical and Laboratory Standards Institute, Reference Method for Broth Dilution Antifungal Susceptibility Testing of Yeasts: Fourth Informational Supplement M27-S4), in RPMI 1640 medium (Roswell Park Memorial Institute medium) containing 2% glucose (w/v). The highest tested concentration was 500 μg/mL, and the inocula were 1^·\10^5 colony forming units (cfu)/mL.

Data set [8] concerns C. parapsilosis ATCC 22019. Kind of data set: Broth microdilution MIC, C. parapsilosis. Format: cell-based, Candida parapsilosis. Conditions: Lodderomyces parapsilosis, ATCC22019. Here is the method: as §2
The next data set deals with C. glabrata ATCC 2001. Put plainly: Broth microdilution MIC, C. glabrata. It counts as cell-based, Candida glabrata. Conditions: Nakaseomyces glabratus, ATCC2001. How it is done: as §2
A further data set relates to C. krusei ATCC 6258. Put plainly: Broth microdilution MIC, C. krusei. Format: cell-based, Candida krusei. Conditions: Pichia kudriavzevii, ATCC6258. How it is done:
as §2

Data set [9] in a line: MTT assay on a human fibroblast cell line. It counts as cell-based. Conditions: human, MRC-5, MTT, read-out: IC50 (cytotoxic effect on MRC-5 cells). Here is the method: Antiproliferative activity was tested by 3-(4,5-dimethylthiazol-2-yl)-2,5-diphenyltetrazolium bromide (MTT) assay on a human lung fibroblast cell line (MRC-5; ATCC collection). Pregrown (24 h) cell monolayers were incubated in the media containing the tested compounds at concentrations ranging from 5 to 500 μg/mL and the cell viability was measured after 48 h. RPMI 1640 medium supplemented with 100 μg/mL streptomycin, 100 U/mL penicillin, and 10% (v/v) FBS (all from Sigma, Munich, Germany) was used for the cultivation of MRC-5 cell line. Cells were maintained as a monolayer (1^·10^4 cells per well) in RPMI 1640 and grown in a humidified atmosphere of 95% air and 5% CO2 at 37°C. The extent of MTT reduction was measured spectrophotometrically at 540 nm using Tecan Infinite 200 Pro multiplate reader (Tecan Group Ltd, Männedorf, Switzerland), and the cell survival was expressed as a percentage of the control (untreated cells). Cytotoxicity was expressed as the concentration of the compound inhibiting cell growth by 50% (IC50).
(In general: Formazan colour is commonly taken as a measure of viable cells.)

Data set [10] has as its system investigated bacterial strains. Put plainly: Broth microdilution MIC, panel of bacterial strains. It counts as cell-based. How it is done: as §1
The next data set deals with calf thymus DNA (ctDNA). Conditions: proven DNA intercalator; cited from earlier work.

As for `c1cc(CCc2ccncc2)ccn1` [bpa, 1,2-Bis(4-pyridyl)ethane], the minimum inhibitory concentration (MIC) is over 500 µg/mL in data set [1] (NCTC9001, 24 h); over 500 µg/mL in data set [2] (PAO1, 24 h); over 500 µg/mL in data set [3] (NCTC11994, 24 h); over 500 µg/mL in data set [4] (ATCC43300, 24 h); over 500 µg/mL in data set [5] (ATCC29212, 24 h); over 500 µg/mL in data set [6]. The MIC was over 500 µg/mL in [7]; 125 µg/mL (≈ 678 µM) in the data set on C. albicans ATCC 10231; 250 µg/mL (≈ 1360 µM) in data set [8]; over 500 µg/mL against C. glabrata ATCC 2001; 125 µg/mL (≈ 678 µM) in the data set with C. krusei ATCC 6258. The IC50 at 48 h in data set [9] turned out to be 300 µg/mL (≈ 1630 µM). The “MIC / antibacterial activity” value in data set [10] is listed as “not significant”.
For the molecule `C(=Cc1ccncc1)c1ccncc1` [bpe, 1,2-bis(4-pyridyl)ethene, reference compound], the MIC in data set [1] (NCTC9001, E. coli NCTC 9001, Luria-Bertani broth, 24 h, 37°C, read-out: MIC) was 250 µg/mL (≈ 1370 µM); in data set [2] (P. aeruginosa PAO1, Luria-Bertani broth, 24 h, 37°C, read-out: MIC), 500 µg/mL (≈ 2740 µM); in [3] (NCTC11994, L. monocytogenes NCTC 11994, Luria-Bertani broth, 24 h, 37°C, read-out: MIC) it was 100 µg/mL (≈ 549 µM); in data set [4] (ATCC43300, S. aureus ATCC 43300, Luria-Bertani broth, 24 h, 37°C, read-out: MIC), over 500 µg/mL; in data set [5] (ATCC29212, E. faecalis ATCC 29212, Luria-Bertani broth, 24 h, 37°C, read-out: MIC), over 500 µg/mL; in data set [6] (S. enteritidis ATCC 13075, Luria-Bertani broth, 37°C, read-out: MIC) it was over 500 µg/mL. Moreover, the MIC in [7] (S. pullorum ATCC 13036, Luria-Bertani broth, 37°C, read-out: MIC) was over 500 µg/mL; in the data set on C. albicans ATCC 10231 (C. albicans ATCC 10231, RPMI 1640 with 2% glucose, read-out: MIC) it was 200 µg/mL (≈ 1100 µM); in [8] (C. parapsilosis ATCC 22019, RPMI 1640 with 2% glucose, read-out: MIC), 125 µg/mL (≈ 686 µM); in the data set with C. glabrata ATCC 2001 (C. glabrata ATCC 2001, RPMI 1640 with 2% glucose, read-out: MIC), 100 µg/mL (≈ 549 µM); in the data set on C. krusei ATCC 6258 (C. krusei ATCC 6258, RPMI 1640 with 2% glucose, read-out: MIC) it was 200 µg/mL (≈ 1100 µM). Moreover, the IC50 at 48 h in data set [9] (MRC-5 human lung fibroblast cells) came out at 220 µg/mL (≈ 1210 µM). Further, the “MIC / antibacterial activity” value in data set [10] was “not significant”.
Take `C[n+]1c2ccccc2c(-c2c3ccccc3[n+](C)c3ccccc23)c2ccccc21` [lucigenin]: the Hypochromism in the data set on calf thymus DNA (ctDNA) is 50%.

The values above are taken from PMC7178511, “Antimicrobial Activity and DNA/BSA Binding Affinity of Polynuclear Silver(I) Complexes with 1,2-Bis(4-pyridyl)ethane/ethene as Bridging Ligands” (Bioinorganic Chemistry and Applications, 2020).
